From ChEMBL document CHEMBL1681670, “Synthesis and cytotoxicity of (-)-renieramycin G analogs” (Bioorg Med Chem Lett, 2011) come the findings set out here.

Assay [1] deals with Bel-7402. In words: Cytotoxicity against human Bel7402 cells after 3 days by MTT assay. Format: functional, cell-based. Particulars: Bel-7402, 72 h. (In general: Tetrazolium assays rely on reduction of a dye to a coloured formazan, in cell work by metabolically active cells.)
For assay [2], the system named is MCF7. Kind of assay: Cytotoxicity against human MCF7 cells after 3 days by MTT assay. Format: functional, cell-based. Particulars: MCF7, 72 h.
Assay [3] relates to A549. Kind of assay: Cytotoxicity against human A549 cells after 3 days by MTT assay. Format: functional, cell-based. Particulars: A549, 72 h.
Assay [4] deals with HeLa. Kind of assay: Cytotoxicity against human HeLa cells after 3 days by MTT assay. It counts as functional, cell-based. Particulars: 72 h.
The test system of assay [5] is KB. Kind of assay: Cytotoxicity against human KB cells after 3 days by MTT assay. Particulars: 72 h. It counts as functional, cell-based.
Assay [6] concerns BGC-823. In words: Cytotoxicity against human BGC823 cells after 3 days by MTT assay. It counts as functional, cell-based. Particulars: BGC-823, 72 h.
The test system of assay [7] is KETR3. Kind of assay: Cytotoxicity against human Ketr3 cells after 3 days by MTT assay. Format: functional, cell-based. Particulars: KETR3, 72 h.
Assay [8] has as its system HCT-8. In words: Cytotoxicity against human HCT8 cells after 3 days by MTT assay. Format: functional, cell-based. Particulars: HCT-8, 72 h.
The test system of assay [9] is A2780. Kind of assay: Cytotoxicity against human A2780 cells after 3 days by MTT assay. Format: functional, cell-based. Particulars: A2780, 72 h.
The subject of assay [10] is LoVo. Kind of assay: Cytotoxicity against human LoVo cells. Format: functional.
Assay [11] deals with KB. Kind of assay: Cytotoxicity against human KB cells. Format: functional.

Molecules are shown by their SMILES. ≈ marks a conversion by molar mass, not a printed value.

For the molecule `COC1=C(C)C(=O)C2=C(C1=O)[C@@H]1[C@@H]3CC4=C(C(=O)C(OC)=C(C)C4=O)[C@H](COC(C)=O)N3C(=O)[C@H](C2)N1C`, the IC50 in assay [1] was 3.96 µM; in assay [2] it was 4.92 µM; in assay [3], 4.49 µM; in assay [4], 2.68 µM; in assay [5] it was 2.25 µM; in assay [6], 4.27 µM. The IC50 was determined as 4.58 µM in [7], 5.68 µM in assay [8] and 3.26 µM in assay [9].

Turning to `C/C=C/C(=O)OC[C@H]1C2=C(C[C@H]3[C@H]4C5=C(C[C@@H](C(=O)N13)N4C)C(=O)C(C)=C(OC)C5=O)C(=O)C(C)=C(OC)C2=O`, the IC50 in assay [1] turned out to be 23.9 µM; in [2], 23.8 µM; in assay [3], 7.42 µM; in [4], 12.7 µM; in assay [5], 5.28 µM; in assay [6], 10.7 µM. In addition, the IC50 turned out to be 17.2 µM in assay [7], 24.7 µM in [8] and 25.3 µM in assay [9].

As to `C/C=C/C=C/C(=O)OC[C@H]1C2=C(C[C@H]3[C@H]4C5=C(C[C@@H](C(=O)N13)N4C)C(=O)C(C)=C(OC)C5=O)C(=O)C(C)=C(OC)C2=O`, the IC50 in assay [1] came out at 2.13 µM; in [2], 2.54 µM; in assay [3], 3.2 µM; in assay [4] it was 2.43 µM; in assay [5] it was 2.03 µM; in [6], 3.5 µM. Moreover, the IC50 in assay [7] stood at 3.86 µM; in [8] it was 3.47 µM; in [9], 2.44 µM.

With `COC1=C(C)C(=O)C2=C(C1=O)[C@@H]1[C@@H]3CC4=C(C(=O)C(OC)=C(C)C4=O)[C@H](COC(=O)c4cc(OC)c(OC)c(OC)c4)N3C(=O)[C@H](C2)N1C`, the IC50 in [1] was 2.26 µM; in [2] it was 2.04 µM; in assay [3] it was 2.23 µM; in assay [4], 1.28 µM; in assay [5] it was 1.79 µM; in [6] it was 1.18 µM. In addition, the IC50 in [7] was determined as 2.16 µM; in assay [8], 2.73 µM; in [9], 2.16 µM.

In the case of `COC1=C(C)C(=O)C2=C(C1=O)[C@@H]1[C@@H]3CC4=C(C(=O)C(OC)=C(C)C4=O)[C@H](COC(=O)c4cc5ccccc5[nH]4)N3C(=O)[C@H](C2)N1C`, the IC50 was 4.59 µM in assay [1]; 3.88 µM in [2]; 4.07 µM in assay [3]; 2.7 µM in assay [4]; 3.36 µM in [5]; 2.6 µM in assay [6]. Besides, the figures for the IC50 in [7], in assay [8] and in [9] were 4.42 µM, 7.85 µM and 3.8 µM, respectively.

As to `COC1=C(C)C(=O)C2=C(C1=O)[C@@H]1[C@@H]3CC4=C(C(=O)C(OC)=C(C)C4=O)[C@H](COC(=O)c4cccnc4)N3C(=O)[C@H](C2)N1C`, the IC50 in assay [1] came to 6.47 µM; in assay [2], 17.4 µM; in assay [3], 5.94 µM; in assay [4], 3.39 µM; in [5], 3.16 µM; in [6] it was 3.38 µM. Also, the IC50 in assay [7] worked out at 4.62 µM; in [8], 19.4 µM; in [9], 12.2 µM.

As to `COC1=C(C)C(=O)C2=C(C1=O)[C@@H]1[C@@H]3CC4=C(C(=O)C(OC)=C(C)C4=O)[C@H](COC(=O)c4ccccc4)N3C(=O)[C@H](C2)N1C`, the concentration for half-maximal inhibition (IC50) in assay [1] was determined as 3.78 µM; in [2] it was 4.94 µM; in assay [3], 3.88 µM; in assay [4], 3.1 µM; in assay [5], 2.83 µM; in assay [6] it was 8.35 µM. Further, the figures for the IC50 in [7], in assay [8] and in assay [9] were 8.82 µM, 6.06 µM and 3.07 µM, respectively.

With `COC1=C(C)C(=O)C2=C(C1=O)[C@@H]1[C@@H]3CC4=C(C(=O)C(OC)=C(C)C4=O)[C@H](COC(=O)c4cccs4)N3C(=O)[C@H](C2)N1C`, the IC50 in assay [1] came out at 1.6 µM; in assay [2] it was 1.86 µM; in assay [3], 0.71 µM; in [4] it was 0.47 µM; in assay [5], 0.02 µM; in assay [6], 0.52 µM. The IC50 in assay [7] was 1.67 µM; in assay [8], 1.48 µM; in assay [9] it was 1.44 µM.

For `COC1=C(C)C(=O)C2=C(C1=O)[C@@H]1[C@@H]3CC4=C(C(=O)C(OC)=C(C)C4=O)[C@H](COC(=O)c4cccc5ccccc45)N3C(=O)[C@H](C2)N1C`, the IC50 in assay [1] was 10.9 µM; in [2], 14.1 µM; in [3], 12.5 µM; in assay [4], 7.58 µM; in assay [5], 5.41 µM; in [6], 17.5 µM. Further, the values for the IC50 in assay [7], in [8] and in [9] were 13.8 µM, 28 µM and 15 µM, respectively.

As to `COC1=C(C)C(=O)C2=C(C1=O)[C@@H]1[C@@H]3CC4=C(C(=O)C(OC)=C(C)C4=O)[C@H](COC(=O)/C=C/c4ccc(OC)cc4)N3C(=O)[C@H](C2)N1C`, the IC50 in assay [1] stood at 7.28 µM; in [2], 3.74 µM; in assay [3], 8.34 µM; in assay [4], 2.81 µM; in assay [5], 3.73 µM; in assay [6], 3.84 µM. Also, the IC50 came out at 3.12 µM in assay [7], 8.85 µM in [8] and 4.16 µM in [9].

With `COC1=C(C)C(=O)C2=C(C1=O)[C@@H]1[C@@H]3CC4=C(C(=O)C(OC)=C(C)C4=O)[C@H](COC(=O)/C=C/c4ccc(F)cc4)N3C(=O)[C@H](C2)N1C`, the IC50 in assay [1] was 14.2 µM; in [2], 9.67 µM; in assay [3] it was 8.32 µM; in assay [4], 9.99 µM; in assay [5] it was 3.95 µM; in assay [6], 7.43 µM. Also, the IC50 in assay [7] is 10.4 µM; in assay [8], 9.15 µM; in assay [9], 15.8 µM.

Regarding `COC1=C(C)C(=O)C2=C(C1=O)[C@@H]1[C@@H]3CC4=C(C(=O)C(OC)=C(C)C4=O)[C@H](COC(=O)/C=C/c4ccccc4)N3C(=O)[C@H](C2)N1C`, the IC50 was determined as 2.3 µM in assay [1]; 3.55 µM in assay [2]; 5 µM in assay [3]; 4.39 µM in [4]; 2.96 µM in assay [5]; 3.31 µM in assay [6]. The IC50 in assay [7] turned out to be 7.83 µM; in assay [8], 5 µM; in assay [9], 5 µM.

`COC1=C(C)C(=O)C2=C(C1=O)[C@@H]1[C@@H]3CC4=C(C(=O)C(OC)=C(C)C4=O)[C@H](COC(=O)/C=C/c4cccnc4)N3C(=O)[C@H](C2)N1C`: the IC50 in assay [1] came out at 2.3 µM; in assay [2], 2.23 µM; in [3], 2.05 µM; in assay [4], 1.18 µM; in [5], 0.39 µM; in [6], 1.26 µM. In addition, the results for the IC50 in assay [7], in [8] and in [9] were 1.43 µM, 2.05 µM and 2.24 µM, respectively.

On to `COC1=C(C)C(=O)C2=C(C1=O)[C@@H]1[C@@H]3CC4=C(C(=O)C(OC)=C(C)C4=O)[C@H](COC(=O)/C=C/c4ccc(OC)c(OC)c4OC)N3C(=O)[C@H](C2)N1C`, for which the IC50 in assay [1] came to 14 µM; in assay [2], 10.6 µM; in [3], 10.6 µM; in [4] it was 5.1 µM; in assay [5] it was 8.22 µM; in assay [6], 9.34 µM. Moreover, the IC50 in [7] stood at 9.29 µM; in assay [8], 12.4 µM; in assay [9] it was 16.8 µM.

Take `COC1=C(C)C(=O)C2=C(C1=O)[C@@H]1[C@@H]3CC4=C(C(=O)C(OC)=C(C)C4=O)[C@H](COC(=O)/C=C/c4cccc5ccccc45)N3C(=O)[C@H](C2)N1C`: the IC50 was 9.81 µM in [1]; 3.94 µM in [2]; 5 µM in assay [3]; 7.42 µM in assay [4]; 8.67 µM in assay [5]; 11.7 µM in assay [6]. For the same molecule, the IC50 in assay [7] was 7.89 µM; in assay [8] it was 9.31 µM; in assay [9], 9.09 µM.

On to `C/C=C(/C)C(=O)OC[C@H]1C2=C(C[C@H]3[C@H]4C5=C(C[C@@H](C(=O)N13)N4C)C(=O)C(C)=C(OC)C5=O)C(=O)C(C)=C(OC)C2=O` [(-)-RENIERAMYCIN G], for which the IC50 worked out at 9.07 µM in assay [1]; 3.78 µM in assay [2]; 5 µM in assay [3]; 2.88 µM in assay [4]; 3.3 µM in assay [5]; 3.37 µM in assay [6]. In addition, the 50% inhibitory concentration (IC50) in assay [7] came to 3.42 µM; in [8], 8.81 µM; in assay [9] it was 4.17 µM. In addition, the MIC is 1 µg/mL (≈ 1.77 µM) in assay [10] and 0.5 µg/mL (≈ 0.886 µM) in assay [11].

A word on the IC50: it is the concentration that inhibits the measured activity by half. A lower IC50 goes with greater potency in that assay.
